Measured values reported in US20250115620A1, “BRIDGED TRICYCLIC CARBAMOYLPYRIDONE COMPOUNDS AND USES THEREOF” (Gilead Sciences, Inc., priority 2022, published 2025).
Read-outs that look alike come from different tables or passages of the source.

Assays:
in vitro = conditions: human, uninfected MT-4 cells
pLAI reporter virus = experiment: microbe, parasite or virus in culture; type: cell-based, HIV; conditions: Human immunodeficiency virus 1, MT4, 72 h
HIV-1 (IIIB) = experiment: microbe, parasite or virus in culture; type: cell-based; conditions: Human immunodeficiency virus 1, IIIB, MT4, 120 h, read-out: MT4 EC50
[1] = HIV-1 (IIIB) in MT-4 cells, 5 days incubation, Cell Titer Glo

SMILES | CC50 at 5 days (in vitro) [µM] | EC50 (pLAI reporter virus; read-out: RLUC 50% HS EC50) [nM] | EC50 (pLAI reporter virus; read-out: RLUC CCM EC50) [nM] | EC50 (HIV-1 (IIIB); [1]) [nM] | EC50 (HIV-1 (IIIB)) [nM]
CC1=NO[C@@]2(CC[C@H](C)N3C[C@H]2n2cc(C(=O)NCc4ccc(F)c(Cl)c4F)c(=O)c(O)c2C3=O)[C@H]1O [Example 35, (3′S,4S,5R,7′R)—N-(3-chloro-2,4-difluorobenzyl)-4,12′-dihydroxy-3,3′-dimethyl-1′,11′-dioxo-1′,4′,5′,11′-tetrahydro-3′H,4H,7′H-spiro[isoxazole-5,6′-[2,7]methanopyrido[1,2-a][1,4]diazonine]-10′-carboxamide] | 20.3 | 102 | 0.3 | 0.9 | 
C[C@H]1CC[C@@]2(CN(C)C(=O)O2)[C@H]2CN1C(=O)c1c(O)c(=O)c(C(=O)NCc3c(F)cc(F)cc3F)cn12 [Example 60, (3′S,5R,7′R)-12′-hydroxy-3,3′-dimethyl-1′,2,11′-trioxo-N-(2,4,6-trifluorobenzyl)-1′,4′,5′,11′-tetrahydro-3′H,7′H-spiro[oxazolidine-5,6′-[2,7]methanopyrido[1,2-a][1,4]diazonine]-10′-carboxamide] | ≥ 50 | 31.2 | 25.2 | 78.6 | 
[2H]C([2H])([2H])OC1=NO[C@@]2(CC[C@H](C)N3C[C@H]2n2cc(C(=O)NCc4c(F)cc(F)cc4F)c(=O)c(O)c2C3=O)C1([2H])[2H] [Example 39, (3′S,5S,7′R)-12′-hydroxy-3-(methoxy-d3)-3′-methyl-1′,11′-dioxo-N-(2,4,6-trifluorobenzyl)-1′,4′,5′,11′-tetrahydro-3′H,4H,7′H-spiro[isoxazole-5,6′-[2,7]methanopyrido[1,2-a][1,4]diazonine]-4,4-d2-10′-carboxamide] | 23.5 | 35.4 | 0.3 | 1 | 
C[C@H]1CC[C@]2(CC(=O)N(Cc3ccc(Cl)cc3)O2)[C@H]2CN1C(=O)c1c(O)c(=O)c(C(=O)NCc3c(F)cc(F)cc3F)cn12 [Example 109, (3′S,5S,7′R)-2-(4-chlorobenzyl)-12′-hydroxy-3′-methyl-1′,3,11′-trioxo-N-(2,4,6-trifluorobenzyl)-1′,4′,5′,11′-tetrahydro-3′H,7′H-spiro[isoxazolidine-5,6′-[2,7]methanopyrido[1,2-a][1,4]diazonine]-10′-carboxamide] | 2.89 | 3.9 | 0.3 | 1.6 | 
COc1ccc(CN2O[C@@]3(CC[C@H](C)N4C[C@H]3n3cc(C(=O)NCc5c(F)cc(F)cc5F)c(=O)c(O)c3C4=O)CC2=O)cc1 [Example 119, (3′S,5S,7′R)-12′-hydroxy-2-(4-methoxybenzyl)-3′-methyl-1′,3,11′-trioxo-N-(2,4,6-trifluorobenzyl)-1′,4′,5′,11′-tetrahydro-3′H,7′H-spiro[isoxazolidine-5,6′-[2,7]methanopyrido[1,2-a][1,4]diazonine]-10′-carboxamide] | ≥ 50 | 2.3 | 0.5 | 1.5 | 
CCN1O[C@@]2(CC[C@H](C)N3C[C@H]2n2cc(C(=O)NCc4c(F)cc(F)cc4F)c(=O)c(O)c2C3=O)CC1=O [Example 157, (3′S,5S,7′R)-2-ethyl-12′-hydroxy-3′-methyl-1′,3,11′-trioxo-N-(2,4,6-trifluorobenzyl)-1′,4′,5′,11′-tetrahydro-3′H,7′H-spiro[isoxazolidine-5,6′-[2,7]methanopyrido[1,2-a][1,4]diazonine]-10′-carboxamide] | ≥ 50 | 4.1 | 0.3 | 1.1 | 
COC[C@@H]1CO[C@@]2(CC[C@H](C)N3C[C@H]2n2cc(C(=O)NCc4c(F)cc(F)cc4F)c(=O)c(O)c2C3=O)O1 (single isomer, unassigned) [168 (peak 1)] | 28.9 | 2 | 0.4 | 1.1 | 
COC1=NO[C@@]2(CC[C@H](C)N3C[C@H]2n2cc(C(=O)NCc4cc(F)c(F)cc4F)c(=O)c(O)c2C3=O)C1 [Example 65, (3′S,5S,7′R)-12′-hydroxy-3-methoxy-3′-methyl-1′,11′-dioxo-N-(2,4,5-trifluorobenzyl)-1′,4′,5′,11′-tetrahydro-3′H,4H,7′H-spiro[isoxazole-5,6′-[2,7]methanopyrido[1,2-a][1,4]diazonine]-10′-carboxamide] | 26.3 | 107 | 0.6 | 1.6 | 
C[C@H]1CC[C@]2(CC(=O)N(Cc3ccccn3)O2)[C@H]2CN1C(=O)c1c(O)c(=O)c(C(=O)NCc3c(F)cc(F)cc3F)cn12 [Example 159, (3′S,5S,7′R)-12′-hydroxy-3′-methyl-1′,3,11′-trioxo-2-(pyridin-2-ylmethyl)-N-(2,4,6-trifluorobenzyl)-1′,4′,5′,11′-tetrahydro-3′H,7′H-spiro[isoxazolidine-5,6′-[2,7]methanopyrido[1,2-a][1,4]diazonine]-10′-carboxamide] | ≥ 50 | 1.1 | 0.8 | 1.8 | 
CC(C)C1=NO[C@@]2(CC[C@H](C)N3C[C@H]2n2cc(C(=O)NCc4ccc(F)cc4F)c(=O)c(O)c2C3=O)C1 [Example 7, (3′S,5S,7′R)—N-(2,4-difluorobenzyl)-12′-hydroxy-3-isopropyl-3′-methyl-1′,11′-dioxo-1′,4′,5′,11′-tetrahydro-3′H,4H,7′H-spiro[isoxazole-5,6′-[2,7]methanopyrido[1,2-a][1,4]diazonine]-10′-carboxamide] | 38.2 | 1.6 | 0.5 | 1.9 | 
C[C@H]1CC[C@]2(CC(C(F)F)=NO2)[C@H]2CN1C(=O)c1c(O)c(=O)c(C(=O)NCc3ccc(F)cc3F)cn12 [Example 21, (3′S,5S,7′R)—N-(2,4-difluorobenzyl)-3-(difluoromethyl)-12′-hydroxy-3′-methyl-1′,11′-dioxo-1′,4′,5′,11′-tetrahydro-3′H,4H,7′H-spiro[isoxazole-5,6′-[2,7]methanopyrido[1,2-a][1,4]diazonine]-10′-carboxamide] | 29.3 | 72.7 | 0.3 | 1.4 | 
[2H]C1C(OC)=NO[C@@]12CC[C@H](C)N1C[C@H]2n2cc(C(=O)NCc3c(F)cc(F)cc3F)c(=O)c(O)c2C1=O (stereo partly drawn) [Example 83, (3′S,5S,7′R)-12′-hydroxy-3-methoxy-3′-methyl-1′,11′-dioxo-N-(2,4,6-trifluorobenzyl)-1′,4′,5′,11′-tetrahydro-3′H,4H,7′H-spiro[isoxazole-5,6′-[2,7]methanopyrido[1,2-a][1,4]diazonine]-4-d-10′-carboxamide] | 16.2 | 41.1 | 0.3 | 2.3 | 
C[C@H]1CCC2(N=c3ccccc3=N2)[C@H]2CN1C(=O)c1c(O)c(=O)c(C(=O)NCc3c(F)cc(F)cc3F)cn12 [Example 142, (3′S,7′R)-12′-hydroxy-3′-methyl-1′,11′-dioxo-N-(2,4,6-trifluorobenzyl)-1′,4′,5′,11′-tetrahydro-3′H,7′H-spiro[benzo[d]imidazole-2,6′-[2,7]methanopyrido[1,2-a][1,4]diazonine]-10′-carboxamide] | ≥ 50 | 0.7 | 0.5 |  | 3.9
CC1=NO[C@@]2(CC[C@H](C)N3C[C@H]2n2cc(C(=O)NCc4ccc(F)cc4F)c(=O)c(O)c2C3=O)O1 [Example 91, (3′S,5R,7′R)—N-(2,4-difluorobenzyl)-12′-hydroxy-3,3′-dimethyl-1′,11′-dioxo-1′,4′,5′,11′-tetrahydro-3′H,7′H-spiro[[1,4,2]dioxazole-5,6′-[2,7]methanopyrido[1,2-a][1,4]diazonine]-10′-carboxamide] | 20 | 158 | 0.2 | 1.4 | 
C[C@H]1CC[C@]2(COCO2)[C@H]2CN1C(=O)c1c(O)c(=O)c(C(=O)NCc3c(F)cc(F)cc3F)cn12 [Example 130, (3′S,4R,7′R)-12′-hydroxy-3′-methyl-1′,11′-dioxo-N-(2,4,6-trifluorobenzyl)-1′,4′,5′,11′-tetrahydro-3′H,7′H-spiro[[1,3]dioxolane-4,6′-[2,7]methanopyrido[1,2-a][1,4]diazonine]-10′-carboxamide] | 9.84 | 363 | 0.2 | 0.9 | 
C[C@H]1CC[C@]2(CC(OCC(F)(F)F)=NO2)[C@H]2CN1C(=O)c1c(O)c(=O)c(C(=O)NCc3ccc(F)cc3F)cn12 [Example 46, (3′S,5S,7′R)—N-(2,4-difluorobenzyl)-12′-hydroxy-3′-methyl-1′,11′-dioxo-3-(2,2,2-trifluoroethoxy)-1′,4′,5′,11′-tetrahydro-3′H,4H,7′H-spiro[isoxazole-5,6′-[2,7]methanopyrido[1,2-a][1,4]diazonine]-10′-carboxamide] | 7.71 | 2.3 | 0.1 | 1.7 | 
C[C@H]1CC[C@]2(CC(CCF)=NO2)[C@H]2CN1C(=O)c1c(O)c(=O)c(C(=O)NCc3c(F)cc(F)cc3F)cn12 [Example 69, (3′S,5S,7′R)-3-(2-fluoroethyl)-12′-hydroxy-3′-methyl-1′,11′-dioxo-N-(2,4,6-trifluorobenzyl)-1′,4′,5′,11′-tetrahydro-3′H,4H,7′H-spiro[isoxazole-5,6′-[2,7]methanopyrido[1,2-a][1,4]diazonine]-10′-carboxamide] | 26.3 | 94.1 | 0.2 | 1.3 | 
CC1=NO[C@@]2(CC[C@H](C)N3C[C@H]2n2cc(C(=O)NCc4ccc(F)cc4F)c(=O)c(O)c2C3=O)[C@H]1O [Example 28, (3′S,4S,5R,7′R)—N-(2,4-difluorobenzyl)-4,12′-dihydroxy-3,3′-dimethyl-1′,11′-dioxo-1′,4′,5′,11′-tetrahydro-3′H,4H,7′H-spiro[isoxazole-5,6′-[2,7]methanopyrido[1,2-a][1,4]diazonine]-10′-carboxamide] | 47 | 51.5 | 0.4 | 0.9 | 
